Where two headings read alike, the source gives them in different places.
Legend:
[1] = pKa of unformulated amine lipid by TNS fluorescence; type: physicochemical
Procedure: The pKa of each amine lipid was determined according to the method in Jayaraman, et al. (Angew Chem Int Ed Engl 51(34), 2012, 8529-8533) with the following adaptations. The pKa was determined for unformulated amine lipid in ethanol. Lipid stock solutions (2.94 mM) were diluted into Sodium Phosphate Buffers (0.1 M, Boston Bioproducts) of different pH (pH-range: 4.5-9.0) yielding a final lipid concentration of approx. 100 μM. The test samples were supplemented with TNS {6-(p-Toluidino)-2-naphthalenesulfonic acid sodium salt}, incubated and the fluorescence intensity was measured using excitation and emission wavelengths of 321 nm and 448 nm, respectively. The recorded data were normalized and the respective pKa values were derived from sigmoidal fitting.

rat TTR gene = assay: In vivo editing of TTR in rat liver after LNP delivery (NGS, % editing); parameters: species or system rat (Sprague-Dawley)
Procedure: LNPs were prepared using various amine lipids in a 4-component lipid system consisting of an ionizable lipid (e.g., an amine lipid), DSPC, cholesterol and a PEG lipid (e.g., PEG2K-DMG, C13 Ether, C14 Ether). In assays for percent liver editing in rats, Cas9 mRNA and chemically modified sgRNA targeting a rat sequence were formulated in LNPs, at either a 1:1 w/w ratio or a 1:2 w/w sgRNA:Cas9 mRNA ratio.
The lipid components were dissolved in 100% ethanol with the lipid component molar ratios described below. The chemically modified sgRNA and Cas9 mRNA were combined and dissolved in 25 mM citrate, 100 mM NaCl, pH 5.0, resulting in a concentration of total RNA cargo of approximately 0.45 mg/mL. The LNPs were formulated with an N:P ratio of about 6, with the ratio of chemically modified sgRNA:Cas9 mRNA at either a 1:1 or 1:2 w/w ratio as described below.
The LNPs were formed by an impinging jet mixing of the lipid in ethanol with two volumes of RNA solution and one volume of water. First, the lipid in ethanol is mixed through a mixing cross with the two volumes of RNA solution. Then, a fourth stream of water is mixed with the outlet stream of the cross through an inline tee. (See, e.g., WO2016010840, FIG. 2). The LNPs were held for 1 hour at room temperature, and further diluted with water (approximately 1:1 v/v). Diluted LNPs were buffer exchanged into 50 mM Tris, 45 mM NaCl, 5% (w/v) sucrose, pH 7.5 (TSS) and concentrated as needed by methods known in the art. The resulting mixture was then filtered using a 0.2 μm sterile filter. The final LNP was stored at 4° C. or −80° C. until further use.
Sprague-Dawley female rats, ranging from 6-10 weeks of age were used in each study. Animals were weighed and dosed based on individual body weight measured the morning of dosing. LNPs were dosed via the lateral tail vein in a volume of 2 mL per kilogram of animal body weight. The animals were periodically observed for adverse effects for at least 24 hours post dose.
For studies measuring in vivo editing in liver, Sprague-Dawley female rats were dosed at 0.1 mpk or 0.03 mpk, unless otherwise noted. Animals were euthanized at 6 or 7 days by carbon dioxide asphyxiation and a heart clip or by ex sanguination via cardiac puncture under isoflourane anesthesia. Blood was collected into serum separator tubes. Liver tissue was collected. Genomic DNA was isolated from the liver tissue for editing measurement by Next-Generation Sequencing (NGS).
In brief, to quantitatively determine the efficiency of editing at the target location in the genome, genomic DNA was isolated and deep sequencing was utilized to identify the presence of insertions and deletions introduced by gene editing.
PCR primers were designed around the target site (e.g., TTR), and the genomic area of interest was amplified. Additional PCR was performed according to the manufacturer's protocols (Illumina) to add the necessary chemistry for sequencing. The amplicons were sequenced on an Illumina MiSeq instrument. The reads were aligned to the […] after eliminating those having low quality scores. The resulting files containing the reads were mapped to the reference genome (BAM files), where reads that overlapped the target region of interest were selected and the number of wild type reads versus the number of reads which contain an insertion, substitution, or deletion was calculated.
The editing percentage (e.g., the “indel efficiency” or “percent indels” or “% editing” or “% indel”) can be defined as the total number of sequence reads with insertions or deletions over the total number of sequence reads, including wild type.
In vivo editing efficiency for materials delivered with formulations including various amine lipid (or ionizable lipid) compounds in Experiments 1 through 14 as described in Tables 3 and 4 was assessed. Editing was measured using G000534 (SEQ ID NO: 5) which targets the rat TTR gene. […]

[2] = sodium phosphate buffer, Table 2, unformulated amine lipid, TNS, read-out: Lipid pKa
[3] = Experiment 14, 0.03 mpk, LNP with C13 Ether
[4] = Experiment 7, 0.1 mpk, LNP with PEG2K-DMG

pKa [1, 2] | SMILES | Mean % editing (rat TTR gene; [4]) | other results
6.56 | CCCCCCCCC(CCCCCCCC)OC(=O)CCCCCC(=O)OCC(COC(=O)CCCCCC(=O)OC(CCCCCCCC)CCCCCCCC)COC(=O)NCCN(CC)CC [Compound 38, O′1,O1-(2-((((2-(diethylamino)ethyl)carbamoyl)oxy)methyl)propane-1,3-diyl) 7,7′-di(heptadecan-9-yl) di(heptanedioate)] | – | Mean % editing (rat TTR gene; [3]): 19.4%
– | CCCCCCCCOC(CCC(=O)OCC(COC(=O)CCCCCCCC)COC(=O)NCCN(CC)CC)OCCCCCCCC (stereo not drawn) [Compound 46, 3-((4,4-bis(octyloxy)butanoyl)oxy)-2-((((2-(diethylamino)ethyl)carbamoyl)oxy)methyl)propyl Nonanoate] | 0.2% | –
– | CCCCCCCCOC(CCC(=O)OCC(COC(=O)OCCCN(CC)CC)COC(=O)C(CCCC)CCCCCC)OCCCCCCCC (stereo not drawn) [Compound 47, 3-((4,4-bis(octyloxy)butanoyl)oxy)-2-((((3-(diethylamino)propoxy)carbonyl)oxy)methyl)propyl 2-butyloctanoate] | 56.3% | –
– | CCCCCCCCOC(CCC(=O)OCC(COC(=O)CCCCCCCC)COC(=O)OCCCN(CC)CC)OCCCCCCCC (stereo not drawn) [Compound 45, 3-((4,4-bis(octyloxy)butanoyl)oxy)-2-((((3-(diethylamino)propoxy)carbonyl)oxy)methyl)propyl Nonanoate] | 1.8% | –
– | CCCCC/C=C\C/C=C\CCCCCCCC(=O)OCC(COC(=O)CCCC(=O)OC(CCCCCCCC)CCCCCCCC)COC(=O)OCC1CCCN(CC)C1 (stereo not drawn) [Compound 62, 3-((((1-ethylpiperidin-3-yl)methoxy)carbonyl)oxy)-2-((((9Z,12Z)-octadeca-9,12-dienoyl)oxy)methyl)propyl heptadecan-9-yl glutarate] | – | Mean % editing (rat TTR gene; Table 8, 0.03 mpk, LNP with C13 Ether): 28.0%
– | CCCCCCCCOC(CCC(=O)OCC(COC(=O)CC(CCCC)CCCCCC)COC(=O)NCCN(CC)CC)OCCCCCCCC (stereo not drawn) [Compound 44, 3-((4,4-bis(octyloxy)butanoyl)oxy)-2-((((2-(diethylamino)ethyl)carbamoyl)oxy)methyl)propyl 3-butylnonanoate] | 59.8% | –
6.63 | CCCCCCCCC(CCCCCCCC)C(=O)OCCCC(=O)OCC(COC(=O)CCCOC(=O)C(CCCCCCCC)CCCCCCCC)COC(=O)NCCN(CC)CC [Compound 39, [4-[2-[2-(diethylamino)ethylcarbamoyloxymethyl]-3-[4-(2-octyldecanoyloxy)butanoyloxy]propoxy]-4-oxo-butyl]2-octyldecanoate] | – | Mean % editing (rat TTR gene; [3]): 11.3%
– | CCCCCCCCC(CCCCCCCC)OC(=O)CCCCC(=O)OCC(COC(=O)CCCCC(=O)OC(CCCCCCCC)CCCCCCCC)COC(=O)OCCCN1CCCC1 [Compound 69, di(heptadecan-9-yl) O,O′-(2-((((3-(pyrrolidin-1-yl)propoxy)carbonyl)oxy)methyl)propane-1,3-diyl) diadipate] | – | pKa ([1]; read-out: pKa): 6.4; Mean % editing in rat liver (rat TTR gene; NGS, dose 0.03 mpk, LNP with G000534 sgRNA and Cas9 mRNA 1:2 w/w, 3% C13 Ether (Compound 53: 3% PEG2K-DMG), N=5 (Compound 33: N=4)): 7.3%
6.2 | CCCCC/C=C\C/C=C\CCCCCCCC(=O)OCC(CCCCCCCCC(=O)OC(CCCC)CCCC)COC(=O)OCCCN(CC)CC (stereo not drawn) [Compound 21, 2-((((3-(diethylamino)propoxy)carbonyl)oxy)methyl)-11-(nonan-5-yloxy)-11-oxoundecyl (9Z,12Z)-octadeca-9,12-dienoate] | – | –

— US20260337153A1, “IONIZABLE AMINE LIPIDS” (Intellia Therapeutics, Inc., priority 2023, published 2026)
